The values below are quoted from earlier work in US11406619B2, “Injectable formulations” (priority 2020, dated 2022).

For the data set the following is noted: according to the Human Metabolome Database; cited from earlier work.

Structures are written as SMILES.

As to `CN(C)CCc1c[nH]c2ccccc12` [Formulation D0, N,N-dimethyltryptamine], the degradation in solution entry was “degrades relatively quickly in solution”.
